In PubChem BioAssay (NCI):
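In this assay, cells in 96-well plates receive the compound at five concentrations for 48 hours. Endpoints are linearly interpolated between the surrounding concentrations. TGI: total growth inhibition.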

What was measured:
Assay in all cases: NCI-60 cell line screen, 48 h
OVCAR-8 ovarian = test system: OVCAR-8 ovarian
ACHN renal = test system: ACHN renal
MOLT-4 leukemia = test system: MOLT-4 leukemia
SK-OV-3 ovarian = test system: SK-OV-3 ovarian
COLO 205 colon = test system: COLO 205 colon
MALME-3M melanoma = test system: MALME-3M melanoma
HCT-116 colon = test system: HCT-116 colon
HOP-62 NSCLC = test system: HOP-62 NSCLC
DMS 114 small cell lung = test system: DMS 114 small cell lung
OVCAR-3 ovarian = test system: OVCAR-3 ovarian
M19-MEL melanoma = test system: M19-MEL melanoma
SNB-19 CNS = test system: SNB-19 CNS
EKVX NSCLC = test system: EKVX NSCLC
OVCAR-5 ovarian = test system: OVCAR-5 ovarian
KM12 colon = test system: KM12 colon
UACC-62 melanoma = test system: UACC-62 melanoma
SW-620 colon = test system: SW-620 colon
SK-MEL-2 melanoma = test system: SK-MEL-2 melanoma
NCI-H460 lung = test system: NCI-H460 lung
SK-MEL-28 melanoma = test system: SK-MEL-28 melanoma
HT29 colon = test system: HT29 colon
SF-539 CNS = test system: SF-539 CNS
SF-295 CNS = test system: SF-295 CNS
NCI-H522 lung = test system: NCI-H522 lung
TK-10 renal = test system: TK-10 renal
DLD-1 colon = test system: DLD-1 colon
UACC-257 melanoma = test system: UACC-257 melanoma
OVCAR-4 ovarian = test system: OVCAR-4 ovarian
SN12C renal = test system: SN12C renal
RXF 393 renal = test system: RXF 393 renal
NCI-H23 lung = test system: NCI-H23 lung
K-562 leukemia = test system: K-562 leukemia
A498 renal = test system: A498 renal
IGROV1 ovarian = test system: IGROV1 ovarian
HL-60(TB) leukemia = test system: HL-60(TB) leukemia
UO-31 renal = test system: UO-31 renal
SK-MEL-5 melanoma = test system: SK-MEL-5 melanoma
HCC-2998 colon = test system: HCC-2998 colon
A549 NSCLC = test system: A549 NSCLC
786-0 renal = test system: 786-0 renal
KM20L2 colon = test system: KM20L2 colon
CCRF-CEM leukemia = test system: CCRF-CEM leukemia
RPMI-8226 leukemia = test system: RPMI-8226 leukemia
SR leukemia = test system: SR leukemia
SF-268 CNS = test system: SF-268 CNS
NCI-H226 lung = test system: NCI-H226 lung
MDA-MB-435 = test system: MDA-MB-435
U251 CNS = test system: U251 CNS
PC-3 prostate = test system: PC-3 prostate
M14 melanoma = test system: M14 melanoma
MDA-N = test system: MDA-N
MCF7 breast = test system: MCF7 breast
BT-549 breast = test system: BT-549 breast
NCI/ADR-RES ovarian = test system: NCI/ADR-RES ovarian
HS 578T breast = test system: HS 578T breast
HOP-92 NSCLC = test system: HOP-92 NSCLC
LOX IMVI melanoma = test system: LOX IMVI melanoma
CAKI-1 renal = test system: CAKI-1 renal
MDA-MB-231 breast = test system: MDA-MB-231 breast
DU-145 prostate = test system: DU-145 prostate
SNB-75 CNS = test system: SNB-75 CNS
HCT-15 colon = test system: HCT-15 colon
T-47D breast = test system: T-47D breast

For `C[N+](C)(C)CC(=O)N/N=C(/Cc1nc2ccc(Cl)cc2[nH]c1=O)C1=NS(=O)(=O)c2cc(S(N)(=O)=O)c(Cl)cc2N1`, the TGI (OVCAR-8 ovarian) was greater than 100 µM, the TGI (ACHN renal) was greater than 100 µM and the TGI (MOLT-4 leukemia) was greater than 100 µM. It also gave a TGI (SK-OV-3 ovarian) greater than 100 µM, a TGI (COLO 205 colon) greater than 100 µM and a TGI (MALME-3M melanoma) greater than 100 µM. It also gave a TGI (HCT-116 colon) greater than 100 µM, a TGI (HOP-62 NSCLC) greater than 100 µM and a TGI (DMS 114 small cell lung) greater than 100 µM. The TGI (OVCAR-3 ovarian) was greater than 100 µM, the TGI (M19-MEL melanoma) was greater than 100 µM and the TGI (SNB-19 CNS) was greater than 100 µM. It also gave a TGI (EKVX NSCLC) greater than 100 µM, a TGI (OVCAR-5 ovarian) greater than 100 µM and a TGI (KM12 colon) greater than 100 µM. The TGI (UACC-62 melanoma) was greater than 100 µM, the TGI (SW-620 colon) was greater than 100 µM and the TGI (SK-MEL-2 melanoma) was greater than 100 µM. It also gave a TGI (NCI-H460 lung) greater than 100 µM, a TGI (SK-MEL-28 melanoma) greater than 100 µM and a TGI (HT29 colon) greater than 100 µM. The TGI (SF-539 CNS) was greater than 100 µM, the TGI (SF-295 CNS) was greater than 100 µM and the TGI (NCI-H522 lung) was greater than 100 µM. For the same compound, the TGI (TK-10 renal) was greater than 100 µM, the TGI (DLD-1 colon) was greater than 100 µM and the TGI (UACC-257 melanoma) was greater than 100 µM. For the same compound, the TGI (OVCAR-4 ovarian) was greater than 100 µM, the TGI (SN12C renal) was greater than 100 µM and the TGI (RXF 393 renal) was greater than 100 µM. The TGI (NCI-H23 lung) was greater than 100 µM, the TGI (K-562 leukemia) was greater than 100 µM and the TGI (A498 renal) was greater than 100 µM. It also gave a TGI (IGROV1 ovarian) greater than 100 µM, a TGI (HL-60(TB) leukemia) greater than 100 µM and a TGI (UO-31 renal) greater than 100 µM. For the same compound, the TGI (SK-MEL-5 melanoma) was greater than 100 µM, the TGI (HCC-2998 colon) was greater than 100 µM and the TGI (A549 NSCLC) was greater than 100 µM. For the same compound, the TGI (786-0 renal) was greater than 100 µM, the TGI (KM20L2 colon) was greater than 100 µM and the TGI (CCRF-CEM leukemia) was greater than 100 µM. It also gave a TGI (RPMI-8226 leukemia) greater than 100 µM, a TGI (SR leukemia) greater than 100 µM and a TGI (SF-268 CNS) greater than 100 µM.
`CCOC(=O)C1C(=O)CC(O)(c2ccccc2)C(C(=O)OCC)C1c1ccc(N(C)C)cc1` (centres undefined) showed a TGI (OVCAR-8 ovarian) greater than 65.9 µM, a TGI (ACHN renal) greater than 100 µM and a TGI (NCI-H226 lung) greater than 100 µM. The TGI (MOLT-4 leukemia) was greater than 84.1 µM, the TGI (SK-OV-3 ovarian) was 52 µM and the TGI (COLO 205 colon) was 53.5 µM. The TGI (MDA-MB-435) was 25.9 µM, the TGI (MALME-3M melanoma) was greater than 85.6 µM and the TGI (HCT-116 colon) was greater than 100 µM. For the same compound, the TGI (HOP-62 NSCLC) was greater than 88.8 µM, the TGI (OVCAR-3 ovarian) was greater than 75.1 µM and the TGI (U251 CNS) was greater than 81.2 µM. The TGI (SNB-19 CNS) was greater than 79.9 µM, the TGI (EKVX NSCLC) was greater than 100 µM and the TGI (OVCAR-5 ovarian) was greater than 100 µM. For the same compound, the TGI (KM12 colon) was greater than 100 µM, the TGI (UACC-62 melanoma) was greater than 100 µM and the TGI (PC-3 prostate) was greater than 100 µM. The TGI (SW-620 colon) was greater than 100 µM, the TGI (SK-MEL-2 melanoma) was greater than 94 µM and the TGI (M14 melanoma) was greater than 100 µM. The TGI (NCI-H460 lung) was greater than 83.8 µM, the TGI (SK-MEL-28 melanoma) was greater than 100 µM and the TGI (MDA-N) was 33.7 µM. For the same compound, the TGI (MCF7 breast) was greater than 100 µM, the TGI (BT-549 breast) was greater than 100 µM and the TGI (HT29 colon) was greater than 58.5 µM. It also gave a TGI (SF-539 CNS) of 37 µM, a TGI (SF-295 CNS) of 29.8 µM and a TGI (NCI-H522 lung) of 30.7 µM. For the same compound, the TGI (NCI/ADR-RES ovarian) was greater than 78.2 µM, the TGI (HS 578T breast) was 23.1 µM and the TGI (TK-10 renal) was greater than 100 µM. For the same compound, the TGI (HOP-92 NSCLC) was greater than 81.7 µM, the TGI (UACC-257 melanoma) was greater than 100 µM and the TGI (OVCAR-4 ovarian) was greater than 100 µM. For the same compound, the TGI (SN12C renal) was greater than 100 µM, the TGI (LOX IMVI melanoma) was greater than 100 µM and the TGI (CAKI-1 renal) was greater than 100 µM. The TGI (RXF 393 renal) was 44.4 µM, the TGI (MDA-MB-231 breast) was greater than 77.1 µM and the TGI (NCI-H23 lung) was greater than 93.9 µM. It also gave a TGI (K-562 leukemia) greater than 100 µM, a TGI (A498 renal) greater than 100 µM and a TGI (IGROV1 ovarian) greater than 100 µM. For the same compound, the TGI (DU-145 prostate) was greater than 100 µM, the TGI (HL-60(TB) leukemia) was 40 µM and the TGI (SNB-75 CNS) was 64.9 µM. It also gave a TGI (UO-31 renal) greater than 100 µM, a TGI (SK-MEL-5 melanoma) of 72.3 µM and a TGI (HCC-2998 colon) greater than 100 µM. It also gave a TGI (A549 NSCLC) greater than 100 µM, a TGI (786-0 renal) greater than 100 µM and a TGI (HCT-15 colon) greater than 100 µM. The TGI (CCRF-CEM leukemia) was greater than 65.1 µM, the TGI (RPMI-8226 leukemia) was 37.4 µM and the TGI (SR leukemia) was 49.1 µM. It also gave a TGI (T-47D breast) greater than 92.5 µM and a TGI (SF-268 CNS) greater than 93.5 µM.
